Results on 13 compounds are retold here after patent publication US10513494B2, “Methods, compounds, and compositions for anesthesia” (THE BOARD OF TRUSTEES OF THE LELAND STANFORD JUNIOR …, priority 2014, dated 2019).

Structures are written as SMILES. Like-named read-outs stand apart in the source and are kept apart here.

What is called EC50 is the midpoint of the concentration-response curve.

The test system of assay [1] is American bullfrog Rana catesbeiana tadpoles. Kind of assay: Loss of righting reflex (LORR) in tadpoles. To be noted: Aquarana catesbeiana, water bath exposure. The format is in vivo. As to the method:
Anesthesia is defined as the combination of a lack of movement to a given stimulus, lack of awareness, amnesia and analgesia. The surrogate of such is manifest in the tadpole as the loss of righting reflex (LORR). Early prelimb-bud stage American bullfrog Rana catesbeiana tadpoles (5 per 50 ml beaker) were placed in room temperature oxygenated water buffered with 2.5 mM Tris HCl buffer (pH=7.4) and containing a concentration of test compound ranging from 0.11 uM-1 mM. Tadpoles were manually tipped every 5 min with a glass rod or stream of water until their righting reflex response stabilized or 120 minutes elapses. […] At the end of each study, tadpoles were transferred to fresh water to assess whether the anesthetic action was reversible.

Assay [2] deals with GABAaR. To be noted: known literature value; read-out: EC50 for GABAaR potentiation; cited from earlier work.
The test system of assay [3] is American bullfrog Rana catesbeiana tadpoles. The experiment in a line: Loss of righting reflex (LORR) in tadpoles. The format is in vivo. To be noted: Aquarana catesbeiana; text refers to Table 2; read-out: EC50 for GABAaR potentiation in tadpoles.
Assay [4] deals with native GABA-A receptors. Kind of assay: Electrophysiology in hippocampal brain slices (paired pulse inhibition, CA1). The format is cell-based. The conditions noted are these: rat hippocampal slice.
Description: Brain slices were prepared from male Sprague-Dawley rats that had been deeply anesthetized with isoflurane. The brain was quickly removed and placed in ice-cold artificial cerebrospinal fluid (ACSF) that was saturated with 95% O2 and 5% CO2 (carbogen) to achieve a pH of 7.4. The ACSF was composed of the following ions dissolved in spectrophotometry grade water (EMD Chemicals Inc., Billerica, Mass.) and stated in millimolar concentrations: Na 151.25, Cl 131.5, HCO3 26, K 2.5, Ca 2, Mg 2, SO4 2, H2PO4 1.25, and glucose 10. Coronal brain slices were prepared using a vibratome (Model 1500, Technical Products International Inc., St. Louis, Mo.) and 400-μm-thick slices were hemisected and placed on cellulose filter papers. They were stored at a gas (carbogen)-liquid (ACSF) interface in a holding chamber for at least 1 hour before use. […]
Evoked field potentials were measured using thin-walled glass pipettes (1.0 ID, 1.5 OD; Garner Glass Co., Claremont, Calif.) filled with ACSF. […]
Recorded signals were conditioned using an Axoclamp 2B preamplifier (Axon Instruments, Sunnyvale, Calif.) with a bandpass from DC to 30 kHz and gain of ×10. […] Responses were measured and plotted in real time to ensure that stable baselines (<±2.0% variation) were recorded for at least 20 minutes before the experiments began. […]

Take `COC(=O)c1cc(-c2ccc(C)c(C)c2)n(-c2ccc(F)cc2Br)c1C` [G]: in assay [1], the EC50 was about 3 µM.

Consider `COC(=O)c1cc(-c2ccc(Br)cc2)n(-c2ccc(Br)cc2)c1C` [K], for which the EC50 in assay [1] was about 40 µM.

Take `Oc1ccccc1` [phenol]: in assay [2], the EC50 is 920 µM.

For `Cc1cc(C(=O)OCc2c(Cl)cccc2Cl)c(C)n1-c1ccccc1` [C], the EC50 in assay [1] was about 5 µM.

For `CCOC(=O)c1cc(-c2ccc(OC)cc2)n(-c2ccc(Cl)cc2)c1C` [Compound A], the EC50 in assay [1] was 1.5 µM; in assay [3], about 1.5 µM.

In the case of `COC(=O)c1cc(-c2ccc(Br)cc2)n(-c2cccc(Cl)c2C)c1C` [J], in assay [1], the EC50 is over 40 µM.

In the case of `Cc1cc(C(=O)OCc2ccc(Cl)cc2Cl)c(C)n1-c1ccccc1` [D], the half-maximal effective concentration (EC50) in assay [1] is about 20 µM.

For the compound `CCOC(=O)c1cc(-c2ccc(Cl)cc2)n(-c2ccccc2)c1C` [Compound B], the EC50 in assay [1] came to 0.53 µM. The “concentration at which paired pulse inhibition was noted” value in assay [4] turned out to be 100 µM.

Regarding `COC(=O)c1cc(-c2ccc(C)c(C)c2)n(-c2ccc(Br)cc2)c1C` [F], in assay [1], the EC50 was about 20 µM.

In the case of `CCOC(=O)c1cc(C)n(-c2cccc(Cl)c2Cl)c1-c1ccccc1` [M], the EC50 in assay [1] was about 20 µM.

On to `COC(=O)c1cc(-c2ccc(C)c(C)c2)n(-c2ccc(Cl)c(Cl)c2)c1C` [H], for which the EC50 in assay [1] was over 40 µM.

For the compound `Cc1cc(C(=O)OCc2ccc(Cl)cc2)c(C)n1-c1ccc(F)cc1` [E], in assay [1], the EC50 was about 40 µM.

For the compound `CCOC(=O)c1cn(-c2ccc(Cl)cc2Cl)c(-c2ccc(Br)cc2)n1` [Compound 1n], the EC50 in assay [2] was 0.19 µM.
